Measured values as given in paper PMC7870626, “Neurotoxicity and underlying cellular changes of 21 mitochondrial respiratory chain inhibitors” (Archives of Toxicology, 2021).
Read-outs that look alike come from different tables or passages of the source.

Key:
[1] = system: LUHMES cells; test: NeuriTox test: neurite area and viability, 24 h; assay type: cell-based, human; conditions: for EC25: Homo sapiens
Procedure: (§1) The NeuriTox test was performed as previously described (Delp et al. [2018b]; Krug et al. [2013a]; Stiegler et al. [2011]). Briefly, cells differentiated for 48 h were re-seeded into 96-well plates at a density of 100,000 cells/cm^2 in DM without cAMP and GDNF, and treated 1 h after seeding for 24 h. Subsequently, multiple endpoints were determined, e.g., neurite outgrowth (i.e., NeuriTox test), resazurin reduction, intracellular ATP content, gene expression levels from TempO-Seq analysis, and proteasomal activity. For the 120 h exposure scenario, LUHMES cells were differentiated for another 3 days after reseeding before they were treated on day 5 (d5) and d7 by a half medium exchange. Endpoints were determined on d10 of differentiation.
Image acquisition and analysis was performed as described previously (Krug et al. [2013a]; Schildknecht et al. [2013]; Stiegler et al. [2011]). In brief, cells were live-stained with 1 µg/ml Hoechst H-33342 and 1 µM calcein-AM and image acquisition was done by an automated high content imager (Cellomics, Waltham, MA, USA). Cell viability was determined as ratio of live cells (cell bodies being Calcein- and Hoechst-positive) relative to the total amount of cells (Hoechst-positive cell bodies). Neurite area was calculated by subtracting the somatic area (Hoechst-positive area plus surrounding) from the calcein-positive area.

[2] = system: LUHMES cells; test: Intracellular ATP content after NeuriTox exposure; assay type: cell-based; conditions: Homo sapiens; NeuriTox exposure scheme, 24 h; read-out: LUHMES 24 h EC25 ATP (converted)
Procedure: as §1
Plates from the NeuriTox test were further used after imaging for determination of alternative endpoints. Intracellular ATP was determined as described earlier (Delp et al. [2019]). In brief, CellTiterGlo 2.0 assay mix (Promega) containing luciferase was added after imaging, and luminescence was recorded. For the determination of resazurin reduction, a 10 × resazurin stock solution was added after imaging to the medium (final resazurin concentration 2 µg/ml) (Delp et al. [2018a]). After 60 min incubation, resazurin fluorescence was recorded (ex: 530 nm, em: 590 nm). Background-corrected data was used for further analysis.

[3] = system: U2OS cells; test: cells; assay type: cell-based; conditions: Homo sapiens; U2OS osteosarcoma cells, 24 h, luminescence of constitutively expressed luciferase; read-out: Cytotox EC25 U2OS (converted)
Procedure: A cell suspension of 100,000 cells/ml was prepared in assay medium, and white 384-well plates were filled with 30 µl/well cell suspension. Twenty-four hours after seeding, a dilution series of test compound, as well as positive and negative controls, were added to the cells. After 24 h exposure, the medium was removed, and 10 µl of Triton X-100 lysis buffer was added to each well. The luminescent signal was determined in a luminometer by injecting BDS Illuminate Mix and measuring the light emission. The Cytotox CALUX cell line constitutively expresses a high level of luciferase protein; the light emission is therefore proportional to the cell number of live cells, and its decrease can be used as measure of cytotoxicity. The light emission generated by cells exposed to vehicle control was set to 100%, and the luminescence of cells exposed to the positive control toxicant tributyltin acetate [100 µM] was set to 0%. The light output of the cells exposed to different concentrations of test compounds was scaled accordingly.

[4] = system: HepG2 cells; test: HepG2-based respirometry, total cell respiration (earlier study); conditions: NeuriTox neurite EC25 relative to cell respiration EC25; respirometric data from HepG2-based assays ref van der Stel et al. 2020
[5] = system: LUHMES cells; assay type: cell-based, human; conditions: 24 h, vs 0.1% DMSO; for log2FoldChange AARS: gene AARS; for log2FoldChange AASDHPPT: gene AASDHPPT; for log2FoldChange AATF: gene AATF; for log2FoldChange ABCA1: gene ABCA1; for log2FoldChange ABCA6: gene ABCA6
Procedure: Cells were cultured and treated as described above for the NeuriTox assay. On d3, after 24 h treatment, culture medium was replaced by 33 µl/well 1 × Biospyder lysis buffer. After 15 min at room temperature, plates were sealed and frozen at -80 °C to complete lysis. Samples were analyzed at Bioclavis (Glasgow) using the TempO-Seq technique and the EU-ToxRisk v2.0 gene probe panel covering ca. 3000 genes (Yeakley et al. [2017]). All genes are listed in the supplementary excel file (containing also all gene regulations). Briefly, a 50 bp fragment of the target gene was amplified. The amplification step also introduced sample-specific barcodes. This allowed pooling of all samples and standard next-generation sequencing of the ensemble. Afterward, adapters were used to allocate the sequenced fragments to the correct samples. Finally, the alignment of all sequenced fragments (FASTQ files) for each sample to the collection of reference 50 bp oligonucleotides was performed for the quantification of reads per gene, also known as the read count values. In a pre-filtering step, samples with a total count < 0.2 million and genes with an average count < 1.5 were removed.
To correct for both read depth and RNA composition, the DESeq2′s median of ratios normalization was applied. The analysis of differentially expressed genes (DEG) of each treatment against the control group was done by the Wald test implemented in DESeq2/R (Love et al. [2014]), including an FDR correction for p-adjusted ≤ 0.05. […] A curve was fit through these concentration–response data to obtain EC10DEG. For comparability, all DEG data were normalized to a positive control. […] The EC10DEG was calculated using an established online open access BMC calculator (BMCeasy) (Krebs et al. [2020]).

[6] = system: SH-SY5Y cells; test: Mitochondrial membrane potential (rhodamine 123), KE2 assay; assay type: cell-based, human; conditions: for Ratios of EC25 KE4/KE2 MMP: NeuriTox neurite EC25 relative to SH-SY5Y MMP EC25
Procedure: Cells were plated at a cell density of 29,500 cells/cm^2 and handled as described above for the neurite SH-SY5Y degeneration. On d6 of differentiation, 50% of the medium was replaced by differentiation medium containing 2 µM Rhodamine 123 (ThermoFisher). After 45 min of preloading at 37 °C with 5% CO2 in darkness, the Rhodamine 123 solution was completely removed and cells were carefully washed once with 200 µl DMEM:F12. Subsequently, 50 µl differentiation medium per well were added followed by the addition of 50 µl/well of test compounds in medium. After 24 h of exposure to the test compounds, the nuclei were stained for 30 min with 20 µL of a solution containing 20 µM Hoechst 33342, and the images were then acquired with a 10 × objective lens using the ImageXpress® Micro (Molecular Devices) high content microplate imager. Nuclei were evaluated in the DAPI channel (excitation 377 ± 50 nm, emission 447 ± 60 nm), whereas Rhodamine 123 fluorescence was detected in the FITC channel (excitation 475 ± 34 nm, emission 536 ± 40 nm). Analysis of the Hoechst 33,342 and Rhodamine 123 fluorescence was performed using the MetaXpress® Software (Molecular Devices) with the Transfluor HT plug-in and the parameters nuclei (for Hoechst-33342) and integrated granule intensity (for Rhodamine 123). Mitochondrial membrane potential (MMP) was quantified as the total fluorescence intensity of Rhodamine 123 in relation to the number of Hoechst-stained nuclei.

[7] = system: proteasome; test: Proteasomal activity (KE3 assay) in LUHMES cells; assay type: cell-based, human; conditions: NeuriTox neurite EC25 relative to proteasomal activity EC25, LUHMES
Procedure: Activity of the proteasome was quantified as described in (Gutbier et al. [2018b]). Briefly, after exposure, culture medium was replaced by assay buffer containing a cell-permeable proteasomal substrate (MeOSuc-Gly-Leu-Phe-AMC, 25 µM (Bachem, Bubendorf, Switzerland) in HBSS). Its AMC-fluorescence (ex: 360 nm, em: 465 nm) increases with proteasomal activity and was monitored for 90 min. Background-corrected data were used for further analysis.

[8] = system: MRC complex (cI, cII or cIII); test: HepG2-based MRC complex assay in permeabilized cells (earlier study); assay type: cell-based; conditions: NeuriTox neurite EC25 relative to complex assay EC25 in permeabilized cells; respirometric data from HepG2-based assays ref van der Stel et al. 2020
[9] = NeuriTox exposure scheme, 24 h, read-out: LUHMES 24 h EC25 NA (neurite area) (converted)
[10] = NeuriTox exposure scheme, 24 h, read-out: LUHMES 24 h EC25 V (viability) (converted)
[11] = NeuriTox test, neurite outgrowth impairment, LUHMES 24 h

Compound | EC25 [1, 9] | EC25 [1, 10] | EC25 [2] | EC25 [3] | Ratios of EC25 KE4/KE1 total respiration [4] | Ratios of EC25 KE4/KE2 MMP [6] | Ratios of EC25 KE4/KE1 complex assay [8] | also measured
CO/N=C(/C(=O)OC)c1ccccc1COc1ccccc1C [Kresoxim-methyl] | 50.1 µM | 39.8 µM | 31.6 µM | > 100 µM | ≥ 10 | – | – | –
CO/C=C(/C(=O)OC)c1ccccc1Oc1cc(Oc2ccccc2C#N)ncn1 [Azoxystrobin] | – | – | – | – | 10.0 | 9.8 | 4.0 | EC25 KE4 (AO) Neurite toxicity [1, 11]: 4.5 -log[M]; log2FoldChange AARS ([5]; 0.10 µM): -0.16 log2; log2FoldChange AASDHPPT ([5]; 0.10 µM): 0.0857 log2; log2FoldChange AATF ([5]; 0.10 µM): -0.0134 log2; log2FoldChange ABCA1 ([5]; 0.10 µM): -0.16 log2; log2FoldChange ABCA6 ([5]; 0.10 µM): -1.97 log2; Ratios of EC25 KE4/KE3 proteasomal [7]: 0.9
CC(C)Oc1cccc(NC(=O)c2ccccc2C(F)(F)F)c1 [Flutolanil] | 79.4 µM | > 100 µM | 79.4 µM | > 100 µM | – | – | – | –
Cc1occc1C(=O)Nc1ccccc1 [Fenfuram] | > 100 µM | > 100 µM | > 100 µM | > 100 µM | – | – | – | –
CC(C)(C)c1ccc(CSc2cnn(C(C)(C)C)c(=O)c2Cl)cc1 [Pyridaben] | 63.1 µM | > 100 µM | 79.4 µM | > 100 µM | 40–60 | – | ≥ 800 | –
CCc1nn(C)c(C(=O)NCc2ccc(C(C)(C)C)cc2)c1Cl [Tebufenpyrad] | 20 µM | 20 µM | 12.6 µM | > 100 µM | 126 | 5.6 | 1000 | EC25 ([1]; NeuriTox test, neurite outgrowth impairment, LUHMES 24 h, read-out: EC25 KE4 (AO) Neurite toxicity (converted)): 20 µM; log2FoldChange AARS ([5]; 0.09 µM): -0.0653 log2; log2FoldChange AASDHPPT ([5]; 0.09 µM): 0.0475 log2; log2FoldChange AATF ([5]; 0.09 µM): 0.19 log2; log2FoldChange ABCA1 ([5]; 0.09 µM): -0.37 log2; log2FoldChange ABCA6 ([5]; 0.09 µM): 0.84 log2; EC25 ([6]; Homo sapiens, SH-SY5Y differentiated 6 days, treated 24 h, rhodamine-123, read-out: pEC25 MMP (concentration where MMP was reduced by 25%) (converted)): 3.16 µM
CC(C)(C)c1ccc(CCOc2ncnc3ccccc23)cc1 [Fenazaquin] | 10 µM | 15.8 µM | 10 µM | > 100 µM | 40–60 | – | ≥ 800 | –
CSC1=N[C@@](C)(c2ccccc2)C(=O)N1Nc1ccccc1 [Fenamidone] | > 50.1 µM | > 50.1 µM | > 50.1 µM | > 100 µM | ≥ 10 | – | – | –
CO/C=C(/C(=O)OC)c1ccccc1COc1cccc(C(F)(F)F)n1 [Picoxystrobin] | – | – | – | – | 63 | 4.7 | 31.6 | EC25 KE4 (AO) Neurite toxicity [1, 11]: 4.4 -log[M]; log2FoldChange AARS ([5]; 0.10 µM): -0.76 log2; log2FoldChange AASDHPPT ([5]; 0.10 µM): 1.04 log2; log2FoldChange AATF ([5]; 0.10 µM): -0.34 log2; log2FoldChange ABCA1 ([5]; 0.10 µM): -0.73 log2; log2FoldChange ABCA6 ([5]; 0.10 µM): 1.05 log2
CO/N=C(/C(=O)OC)c1ccccc1CO/N=C(\C)c1cccc(C(F)(F)F)c1 [Trifloxistrobin] | – | – | – | – | ≥ 10 | – | – | –
